Patent publication US11939361B2, “Compositions of peptide inhibitors of Interleukin-23 receptor” (Janssen Pharmaceutica NV, priority 2020, dated 2024)
Several values for one entry are separate records, joined by “and”; a condition that tells them apart may be missing. Equal entries are not always repeated. Where two headings read alike, the source gives them in different places.

Tests used:
[1] = Rat PK Study 1: intraduodenal/intracolonic dosing with absorption enhancers; assay type: in vivo, Sprague Dawley rats; details: for AUC(0-inf) / AUC(0-t) / Cmax / Tmax: male, Sprague Dawley, plasma, 10 mg/kg
Protocol: In this Example, a screen of various absorption enhancers was assessed. […] The following absorption enhancers were tested: sodium caprate (NaCl0), sodium salcaprozate (SNAC), sucrose laureate, Peptelligence (proprietary technology from Enteris Pharma-undisclosed composition) and Labrasol. The solutions were dosed by intracolonic (IC) or intraduodenal (ID) injection to rats. […] NaCl0 gave the highest systemic exposure followed by Peptelligence, then Labrasol, then SNAC, and finally sucrose laureate. Accordingly, sodium caprate was determined to be a preferred absorption enhancer. […] Therefore, the systemic exposure is likely to be high enough to afford systemic activity.
The following absorption enhancers were evaluated: sodium caprate (NaCl0, 100 mg/kg), SNAC (100 mg/kg), sucrose laurate (100 mg/kg), Enteris A (proprietary technology of Enteris Pharma) (60 mg/kg), and Labrasol (100 mg/kg).

clinical = details: human, in vivo
[2] = system: IL-23-induced IL-17A secretion; experiment: In vitro rat whole blood assay of IL-23-induced IL-17A secretion; assay type: cell-based
[3] = other: intracolonic, IC dose 10 mg/kg, Enteris A 60 mg/kg
[4] = other: intracolonic, IC dose 10 mg/kg, Labrasol 100 mg/kg
[5] = other: intracolonic, IC dose 10 mg/kg, NaC10 100 mg/kg
[6] = other: intracolonic, IC dose 10 mg/kg, SNAC 100 mg/kg
[7] = other: intracolonic, IC dose 10 mg/kg, Sucrose laurate 100 mg/kg
[8] = other: intracolonic, IC dose 10 mg/kg, no absorption enhancer
[9] = other: intraduodenal, ID dose 10 mg/kg, Enteris A 60 mg/kg
[10] = other: intraduodenal, ID dose 10 mg/kg, Labrasol 100 mg/kg
[11] = other: intraduodenal, ID dose 10 mg/kg, NaC10 100 mg/kg
[12] = other: intraduodenal, ID dose 10 mg/kg, SNAC 100 mg/kg
[13] = other: intraduodenal, ID dose 10 mg/kg, Sucrose laurate 100 mg/kg
[14] = other: intraduodenal, ID dose 10 mg/kg, no absorption enhancer

CC(=O)NCCCC[C@@H]1NC(=O)[C@H](Cc2c[nH]c3c(C)cccc23)NC(=O)[C@H]([C@@H](C)O)NC(=O)[C@H](CC(N)=O)NC(=O)[C@@H](NC(C)=O)C(C)(C)SSC(C)(C)[C@@H](C(=O)N[C@@H](Cc2ccc(OCCN)cc2)C(=O)N[C@@H](Cc2ccc3ccccc3c2)C(=O)NC2(C(=O)N[C@@H](CCC(=O)O)C(=O)N[C@@H](CC(N)=O)C(=O)N[C@@H](Cc3cccnc3)C(=O)N(C)CC(N)=O)CCOCC2)NC1=O [SEQ ID NO: 1, Ac-[Pen]*—N-T-[W(7-Me)]-[Lys(Ac)]-[Pen]*-Phe[4-(2-aminoethoxy)]-[2-Nal]-[THP]-E-N-[3-Pal]-Sarc-NH2]
Fabs ([1]; IC dose 10 mg/kg, Enteris A 60 mg/kg): 2.98%
Fabs ([1]; IC dose 10 mg/kg, Labrasol 100 mg/kg): 5.82%
Fabs ([1]; IC dose 10 mg/kg, NaC10 100 mg/kg): 6.36%
Fabs ([1]; IC dose 10 mg/kg, SNAC 100 mg/kg): 1.64%
Fabs ([1]; IC dose 10 mg/kg, Sucrose laurate 100 mg/kg): 0.939%
Fabs ([1]; IC dose 10 mg/kg, no absorption enhancer): 0.0531%
Fabs ([1]; ID dose 10 mg/kg, Enteris A 60 mg/kg): 5.06%
Fabs ([1]; ID dose 10 mg/kg, Labrasol 100 mg/kg): 3.26%
Fabs ([1]; ID dose 10 mg/kg, NaC10 100 mg/kg): 6.24%
Fabs ([1]; ID dose 10 mg/kg, SNAC 100 mg/kg): 1.13%
Fabs ([1]; ID dose 10 mg/kg, Sucrose laurate 100 mg/kg): 0.764%
Fabs ([1]; ID dose 10 mg/kg, no absorption enhancer): 0.360%
AUC(0-inf) [1, 3]: 567 ng·h/mL
AUC(0-t) [1, 3]: 561 ng·h/mL
Cmax [1, 3]: 626 ng/mL
Tmax [1, 3]: 15 min
AUC(0-inf) [1, 4]: 1110 ng·h/mL
AUC(0-t) [1, 4]: 1100 ng·h/mL
Cmax [1, 4]: 976 ng/mL
Tmax [1, 4]: 15 min
AUC(0-inf) [1, 5]: 1210 ng·h/mL
AUC(0-t) [1, 5]: 1210 ng·h/mL
Cmax [1, 5]: 1030 ng/mL
Tmax [1, 5]: 20 min
AUC(0-inf) [1, 6]: 312 ng·h/mL
AUC(0-t) [1, 6]: 309 ng·h/mL
Cmax [1, 6]: 309 ng/mL
Tmax [1, 6]: 20 min
AUC(0-inf) [1, 7]: 179 ng·h/mL
AUC(0-t) [1, 7]: 176 ng·h/mL
Cmax [1, 7]: 191 ng/mL
Tmax [1, 7]: 15 min
Cmax [1, 8]: 4.99 ng/mL
Tmax [1, 8]: 35 min
AUC(0-inf) [1, 9]: 964 ng·h/mL
AUC(0-t) [1, 9]: 958 ng·h/mL
Cmax [1, 9]: 988 ng/mL
Tmax [1, 9]: 15 min
AUC(0-inf) [1, 10]: 621 ng·h/mL
AUC(0-t) [1, 10]: 617 ng·h/mL
Cmax [1, 10]: 625 ng/mL
Tmax [1, 10]: 15 min
AUC(0-inf) [1, 11]: 1190 ng·h/mL
AUC(0-t) [1, 11]: 1190 ng·h/mL
Cmax [1, 11]: 1220 ng/mL
Tmax [1, 11]: 15 min
AUC(0-inf) [1, 12]: 215 ng·h/mL
AUC(0-t) [1, 12]: 210 ng·h/mL
Cmax [1, 12]: 209 ng/mL
Tmax [1, 12]: 15 min
AUC(0-inf) [1, 13]: 145 ng·h/mL
AUC(0-t) [1, 13]: 141 ng·h/mL
Cmax [1, 13]: 107 ng/mL
Tmax [1, 13]: 15 min
AUC(0-inf) [1, 14]: 68.6 ng·h/mL
Cmax [1, 14]: 23.1 ng/mL
Tmax [1, 14]: 40 min
AUC(0-t) ([1]; other: intraduodenal, ID dose 10 mg/kg, no absorption enhancer, last time point 2, 4, 6, 8, or 24 hours): 62 ng·h/mL
half-life (clinical): 600 to 720 min
AUC (clinical; po, 10 mg): 1.56 ng·h/mL
AUC (clinical; po, 25 mg): 6.47 ng·h/mL
AUC (clinical; po, 100 mg): 20.8 ng·h/mL
AUC (clinical; po, 300 mg): 51 ng·h/mL
half-life (clinical; po, 300 mg): 557 min
AUC (clinical; po, 1000 mg): 141 ng·h/mL
Cmax (clinical; po, 1000 mg): 8.3 ng/mL
Tmax (clinical; po, 1000 mg): 4.5 h
IC50 ([2]; read-out: IC50 at 4 ng/mL IL-23 stimulation, individual vehicle-dosed rats, plus 4 ng/mL IL-1β, listed as peptide of SEQ ID NO: 1): 0.012 nM and 0.027 nM and 0.045 nM and 0.013 nM and 0.06 nM and 0.066 nM
IC50 ([2]; read-out: IC50 at 4 ng/mL IL-23 stimulation, pooled blood (n = 6 naïve rats), plus 4 ng/mL IL-1β, listed as peptide of SEQ ID NO: 1): 0.1 nM and 0.11 nM
IC50 ([2]; read-out: IC50 at 20 ng/mL IL-23 stimulation, individual vehicle-dosed rats, listed as peptide of SEQ ID NO: 1): 0.24 nM and 0.16 nM and 0.22 nM and 0.23 nM and 0.34 nM and 0.29 nM
IC50 ([2]; read-out: Mean IC50 at 4 ng/mL IL-23 stimulation, in vitro rat whole blood, mean of all experiments): 0.054 ± 0.034 nM
IC50 ([2]; read-out: Mean IC50 at 20 ng/mL IL-23 stimulation, in vitro rat whole blood, n=6 rats): 0.25 ± 0.062 nM
